Reference: patent US20210317092A1 (BAYER PHARMA AKTIENGESELLSCHAFT, priority 2016, published 2021)
Where two headings read alike, the source gives them in different places.

Target: T1, human Bradykinin B1 receptor (Homo sapiens, UniProt P46663)
T1 construct: host or cells: CHO-K1
T1 sequence (P46663 1-353): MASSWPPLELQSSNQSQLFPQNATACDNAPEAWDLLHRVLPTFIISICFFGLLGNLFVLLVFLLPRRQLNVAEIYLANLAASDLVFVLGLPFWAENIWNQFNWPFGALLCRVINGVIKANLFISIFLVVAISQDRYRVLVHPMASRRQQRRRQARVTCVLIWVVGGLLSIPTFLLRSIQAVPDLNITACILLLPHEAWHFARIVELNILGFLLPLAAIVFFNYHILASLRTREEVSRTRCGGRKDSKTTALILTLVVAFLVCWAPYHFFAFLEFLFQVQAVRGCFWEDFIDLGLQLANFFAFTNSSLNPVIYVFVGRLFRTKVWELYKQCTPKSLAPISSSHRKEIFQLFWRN
Experiment: Calcium flux Assay (FLIPR) with recombinant CHO-K1 cells expressing human Bradykinin B1 receptor, in presence (hB1 IC50) or absence (hB1 free IC50) of 0.1% BSA
Type: cell-based

[1] = in absence of 0.1% BSA, read-out: hB1 free IC50
[2] = in presence of 0.1% BSA, read-out: hB1 IC50

SMILES	IC50 [1]	IC50 [2]
O=C(Nc1ccc(-c2ccnc(C(F)(F)F)c2)c(-c2nnn[nH]2)c1)C1(c2ccc(Cl)c(F)c2)CC1 [Example 177, 1-(4-chloro-3-fluorophenyl)-N-{3-(1H-tetrazol-5-yl)-4-[2-(trifluoromethyl)pyridin-4-yl]phenyl} cyclopropane-carboxamide]	274 nM	
O=C(Nc1ccc(-c2ccnc(C(F)(F)F)c2)c(-c2nnn[nH]2)c1)C1(c2ccc(F)cc2F)CC1 [Example 178, 1-(2,4-difluorophenyl)-N-{3-(1H-tetrazol-5-yl)-4-[2-(trifluoromethyl)pyridin-4-yl]phenyl} cyclopropane-carboxamide]	287 nM	
O=C(Nc1ccc(-c2ccnc(C(F)(F)F)c2)c(-c2nnn[nH]2)c1)C1(c2cc(F)ccc2F)CC1 [Example 179]	393 nM	
COc1cc(C2(C(=O)Nc3ccc(-c4ccnc(C(F)(F)F)c4)c(-c4nnn[nH]4)c3)CC2)ccc1F [Example 180, 1-(4-fluoro-3-methoxyphenyl)-N-{3-(1H-tetrazol-5-yl)-4-[2-(trifluoromethyl)pyridin-4-yl]phenyl} cyclopropane-carboxamide]	768 nM	
O=C(Nc1ccc(-c2ccnc(F)c2)c(-c2nnn[nH]2)c1)C1(c2cccc(Cl)c2)CC1 [Example 182, 1-(3-chlorophenyl)-N-[4-(2-fluoropyridin-4-yl)-3-(1H-tetrazol-5-yl)phenyl] cyclopropane-carboxamide]	185 nM	1350 nM
O=C(Nc1ccc(-c2cnc(NC3CC3)nc2)c(-c2nnn[nH]2)c1)C1(c2cccc(Cl)c2)CC1 [Example 185]	251 nM	
N#Cc1ccc(-c2ccc(NC(=O)C3(c4cccc(Cl)c4)CC3)cc2-c2nnn[nH]2)cc1F [Example 186, 1-(3-chlorophenyl)-N-[4′-cyano-3′-fluoro-2-(1H-tetrazol-5-yl)biphenyl-4-yl]cyclopropane carboxamide]	252 nM	
COc1ncccc1-c1ccc(NC(=O)C2(c3cccc(Cl)c3)CC2)cc1-c1nnn[nH]1 [Example 187, 1-(3-chlorophenyl)-N-[4-(2-methoxypyridin-3-yl)-3-(1H-tetrazol-5-yl)phenyl] cyclopropane-carboxamide]	1620 nM	
CO[C@H]1CC[C@@H](c2ccc(NC(=O)C3(c4cccc(Cl)c4F)CC3)cc2-c2nnn[nH]2)CC1 [Example 189, 1-(3-chloro-2-fluorophenyl)-N-[4-(cis-4-methoxy-cyclohexyl)-3-(1H-tetrazol-5-yl)phenyl] cyclopropane-carboxamide]	2350 nM	
Cc1ncc(-c2ccc(NC(=O)C3(c4cccc(Cl)c4)CC3)cc2-c2nnn[nH]2)cn1 [Example 194, 1-(3-chlorophenyl)-N-[4-(2-methylpyrimidin-5-yl)-3-(1H-tetrazol-5-yl)phenyl] cyclopropane-carboxamide]	569 nM	575 nM
Cc1ncc(-c2ccc(NC(=O)C3(c4cccc(Cl)c4F)CC3)cc2-c2nnn[nH]2)cn1 [Example 195, 1-(3-chloro-2-fluorophenyl)-N-[4-(2-methylpyrimidin-5-yl)-3-(1H-tetrazol-5-yl)phenyl] cyclopropane-carboxamide]	183 nM	311 nM
O=C(Nc1ccc(-c2cnc(C(F)(F)F)nc2)c(-c2nnn[nH]2)c1)C1(c2cccc(Cl)c2F)CC1 [Example 197, 1-(3-chloro-2-fluorophenyl)-N-{3-(1H-tetrazol-5-yl)-4-[2-(trifluoromethyl)pyrimidin-5-yl]phenyl} cyclopropane-carboxamide]	493 nM	993 nM
O=C(Nc1ccc(-c2cnc(C(F)(F)F)nc2)c(-c2nnn[nH]2)c1)C1(c2ccc(OC(F)(F)F)cc2)CC1 [Example 198, N-{3-(1H-tetrazol-5-yl)-4-[2-(trifluoromethyl)pyrimidin-5-yl]phenyl}-1-[4-(trifluoromethoxy)phenyl] cyclopropane-carboxamide]	943 nM	
COc1cc(-c2ccc(NC(=O)C3(c4cccc(Cl)c4)CC3)cc2-c2nnn[nH]2)cc(C(F)(F)F)n1 [Example 199, 1-(3-chlorophenyl)-N-{4-[2-methoxy-6-(trifluoromethyl)pyridin-4-yl]-3-(1H-tetrazol-5-yl)phenyl} cyclopropane-carboxamide]	1580 nM	2400 nM
CS(=O)(=O)c1ccc(-c2ccc(NC(=O)C3(c4cccc(Cl)c4)CC3)cc2-c2nnn[nH]2)cn1 [Example 200, 1-(3-chlorophenyl)-N-{4-[6-(methylsulfonyl)pyridin-3-yl]-3-(1H-tetrazol-5-yl)phenyl} cyclopropane-carboxamide]	1170 nM	
CS(=O)(=O)c1ccc(-c2ccc(NC(=O)C3(c4ccc(C(F)(F)F)cc4F)CC3)cc2-c2nnn[nH]2)cn1 [Example 201, 1-[2-fluoro-4-(trifluoromethyl)phenyl]-N-{4-[6-(methylsulfonyl)pyridin-3-yl]-3-(1H-tetrazol-5-yl)phenyl} cyclopropane-carboxamide]	374 nM	
O=C(Nc1ccc(-c2ccc(C(F)(F)F)nc2)c(-c2nnn[nH]2)c1)C1(c2ccc(F)cc2)CC1 [Example 204, 1-(4-fluorophenyl)-N-{3-(1H-tetrazol-5-yl)-4-[6-(trifluoromethyl)pyridin-3-yl]phenyl} cyclopropane-carboxamide]	125 nM	
O=C(Nc1ccc(-c2cnc(C(F)(F)F)nc2)c(-c2nnn[nH]2)c1)C1(c2ccc(C(F)(F)F)cc2)CC1 [Example 205, N-{3-(1H-tetrazol-5-yl)-4-[2-(trifluoromethyl)pyrimidin-5-yl]phenyl)-1-[4-(trifluoromethyl)phenyl] cyclopropane-carboxamide]	170 nM	
O=C(Nc1ccc(-c2ccnc(C(F)F)c2)c(-c2nnn[nH]2)c1)C1(c2ccc(F)c(F)c2)CC1 [Example 206, N-{4-[2-(difluoromethyl)pyridin-4-yl]-3-(1H-tetrazol-5-yl)phenyl}-1-(3,4-difluorophenyl) cyclopropane-carboxamide]	485 nM	
Cc1cc(-c2ccc(NC(=O)C3(c4cccc(Cl)c4)CC3)cc2-c2nnn[nH]2)ccn1 [Example 210, 1-(3-chlorophenyl)-N-[4-(2-methylpyridin-4-yl)-3-(1H-tetrazol-5-yl)phenyl] cyclopropane-carboxamide]	131 nM	78 nM
CCOc1ccc(-c2ncc(NC(=O)C3(c4ccc(C(F)(F)F)cc4F)CC3)cc2-c2nnn[nH]2)cn1 [Example 219, N-[6′-ethoxy-3-(1H-tetrazol-5-yl)-2,3′-bipyridin-5-yl]-1-[2-fluoro-4-(trifluoromethyl)phenyl] cyclopropane-carboxamide]	86.8 nM	
O=C(Nc1cc(-c2nnn[nH]2)c(-c2ccc(C(F)(F)F)nc2)cc1O)C1(c2ccc(Cl)cc2F)CC1 [Example 221, 1-(4-chloro-2-fluorophenyl)-N-{2-hydroxy-5-(1H-tetrazol-5-yl)-4-[6-(trifluoromethyl)pyridin-3-yl]phenyl} cyclopropane-carboxamide]		160 nM
O=C(Nc1cc(-c2nnn[nH]2)c(-c2ccc(C(F)(F)F)nc2)cc1O)C1(c2cc(F)cc(Cl)c2)CC1 [Example 223, 1-(3-chloro-5-fluorophenyl)-N-{2-hydroxy-5-(1H-tetrazol-5-yl)-4-[6-(trifluoromethyl)pyridin-3-yl]phenyl} cyclopropane-carboxamide]		84 nM
O=C(Nc1cc(-c2nnn[nH]2)c(-c2ccc(C(F)(F)F)nc2)cc1O)C1(c2cccc(Cl)c2F)CC1 [Example 225, 1-(3-chloro-2-fluorophenyl)-N-{2-hydroxy-5-(1H-tetrazol-5-yl)-4-[6-(trifluoromethyl)pyridin-3-yl]phenyl} cyclopropane-carboxamide]		88.9 nM
O=C(Nc1cc(-c2nnn[nH]2)c(-c2ccc(C(F)(F)F)nc2)cc1O)C1(c2ccc(Cl)cc2)CC1 [Example 226, 1-(4-chlorophenyl)-N-{2-hydroxy-5-(1H-tetrazol-5-yl)-4-[6-(trifluoromethyl)pyridin-3-yl]phenyl} cyclopropane-carboxamide]		105 nM
O=C(Nc1cc(-c2nnn[nH]2)c(-c2ccc(C(F)(F)F)nc2)cc1O)C1(c2ccc(F)cc2F)CC1 [Example 228, 1-(2,4-Difluorophenyl)-N-{2-hydroxy-5-(1H-tetrazol-5-yl)-4-[6-(trifluoromethyl)pyridin-3-yl]phenyl} cyclopropane-carboxamide]		88.2 nM
COc1ccc(-c2cc(F)c(NC(=O)C3(c4cc(Cl)ccc4F)CC3)cc2-c2nnn[nH]2)cc1 [Example 229, 1-(5-Chloro-2-fluorophenyl)-N-[5-fluoro-4′-methoxy-2-(1H-tetrazol-5-yl)biphenyl-4-yl]cyclopropane carboxamide]		1280 nM
COc1ccc(-c2cc(F)c(NC(=O)C3(c4ccc(F)c(Cl)c4)CC3)cc2-c2nnn[nH]2)cc1C [Example 230, 1-(3-Chloro-4-fluorophenyl)-N-[5-fluoro-4′-methoxy-3′-methyl-2-(1H-tetrazol-5-yl)biphenyl-4-yl]cyclopropane-carboxamide]		2100 nM
COc1ccc(-c2cc(F)c(NC(=O)C3(c4ccc(Cl)cc4F)CC3)cc2-c2nnn[nH]2)cc1C [Example 231, 1-(4-Chloro-2-fluorophenyl)-N-[5-fluoro-4′-methoxy-3′-methyl-2-(1H-tetrazol-5-yl)biphenyl-4-yl]cyclopropane carboxamide]		2200 nM
COc1ccc(-c2c(F)cc(NC(=O)C3(c4ccc(F)cc4F)CC3)cc2-c2nnn[nH]2)cc1OC [Example 235, 1-(2,4-Difluorophenyl)-N-[2-fluoro-3′,4′-dimethoxy-6-(1H-tetrazol-5-yl)biphenyl-4-yl]cyclopropane carboxamide]		53.6 nM
